Experimental data published in publication PMC10108347, “Heterobifunctional Ligase Recruiters Enable pan-Degradation of Inhibitor of Apoptosis Proteins” (Journal of Medicinal Chemistry, 2023).
Like-named read-outs stand apart in the source and are kept apart here. One block for each molecule: values may come before it. *1 amine or outer side, *2 acyl side, *3 side chain or, on linkers, in order; H or OH if unused. Where a SMILES comes first, the peptide text is derived from it. Bridges are numbered along the chain shown (N, C = ends). Roman numbers before positions name the chains, in order. [ ]: non-standard residue; d: D form. Hexamethylenediamine = C(CCCN[*:2])CCN[*:1]; dDip = N[C@@H](C(=O)O)C(c1ccccc1)c1ccccc1; Chg = N[C@H](C(=O)O)C1CCCCC1; dNMeA = CN[C@H](C)C(=O)O

Key:
[1] = target: T1, cIAP1 (Homo sapiens, UniProt Q13490); assay: Immunoblotting of cIAP1 in HG3 wild-type and HG3 VHL-knockout cells; format: cell-based; parameters: endogenous in cells; host or cells: MM.1S; conditions: 1 μM, 16 h
Protocol: (§1) Next, cellular activities of hetero-PROTACs 2, 4, and 6 were evaluated in chronic lymphocytic leukemia cells (HG3), for which a VHL-knockout cell line was created (Figure 5). […] Thus, VHL knockout confirmed the involvement of E3 ubiquitin ligase CRL2^VHL in the induced degradation of XIAP (and, at least in part, cIAP1) by these IAP-VHL heterobifunctional PROTACs. This provides additional evidence that the degradation of IAPs relies on the formation of a hetero–ternary complex consisting of both ligases and the degraders.
(§2) For generation of lentiviral vectors, HEK293T cells were transfected with constructs along with the packaging and envelope vectors. Viral supernatants were harvested 48 h after transfection and were used to transduce cell lines. MM.1S and HG3 cells were transduced with virus containing pLKO5d.SSF.SpCas9.P2a.BSD, and cells were selected with blasticidin. Selected cells were then transduced with respective sgRNA constructs targeting VHL, cIAP1, cIAP2, XIAP, and negative control luciferase, which were cloned into pLKO5.hU6.sgRNA.dTom. Transduction success was confirmed through FACS analysis 48 h post-transduction with a minimum efficiency of 95% tomato fluorescence.

[2] = target: T2, XIAP (Homo sapiens, UniProt P98170); assay: Immunoblotting of XIAP in HG3 wild-type and HG3 VHL-knockout cells; format: cell-based; parameters: endogenous in cells; host or cells: MM.1S; conditions: 1 μM, 16 h
Protocol: as §1, §2

[3] = target: T2, XIAP; assay: Immunoblotting (western blot) quantification of XIAP levels in MM.1S cells; conditions: 16 h; for remaining activity at 0.1 µM: MM1.S
Protocol: (§3) To evaluate the capability of our panel of hetero-PROTACs for E3 ligase degradation, VHL19, VHL30, CRBN, cIAP1, cIAP2, and XIAP levels were quantified by western blot analyses. […] SDS-PAGE was performed, and proteins were then transferred onto PVDF membranes. Blotted membranes were blocked with 5% milk in Tris-buffered saline/Tween20 (TBST). Primary antibodies were diluted in 5% BSA in TBST, and incubations were performed overnight at 4 °C. Secondary HRP-conjugated antibodies diluted in 5% milk were incubated for 1 h at room temperature. Detection of proteins on PVDF was carried out using the WesternBright ECL HRP substrate or the WesternBright Sirius HRP substrate (Advansta, San Jose, USA) and imaged with LAS 4000× (Fujifilm). Membranes were subjected to 10 min incubation with Restore Western Blot Stripping Buffer (Thermo Fisher Scientific, Waltham, USA), followed by TBST washes. After brief re-activation with methanol, the membranes were blocked, and further probing of proteins was carried out.
(§4) Quantification of blots was performed using ImageJ software (National Institutes of Health).

[4] = target: T1, cIAP1; assay: Immunoblotting (western blot) quantification of cIAP1 levels in MM.1S cells; conditions: 16 h; for remaining activity at 0.1 µM: MM1.S
[5] = target: cIAP2 (Homo sapiens, UniProt Q13489); assay: Immunoblotting (western blot) quantification of cIAP2 levels in MM.1S cells; conditions: 16 h; for remaining activity at 0.1 µM: MM1.S
[6] = target: VHL30 (Homo sapiens, UniProt P40337); assay: Immunoblotting (western blot) quantification of VHL30 levels in MM.1S cells; conditions: for remaining activity at 0.1 µM: MM1.S, 16 h
[7] = target: VHL19 (Homo sapiens, UniProt P40337); assay: Immunoblotting (western blot) quantification of VHL19 levels in MM.1S cells; conditions: 16 h, western blot
Protocol: as §3, §4

[8] = test system: IAPs (cIAP1, cIAP2, XIAP); assay: Immunoblotting of IAPs in MM.1S cells, overall degradation profile, time course and washout; format: cell-based; conditions: 16 h, western blot, concentration (10 nM to 1 μM)
Protocol: Next, we examined the persistence of IAP degradation in MM.1S cells after a single exposure to 1 μM of 9 and subsequent removal of the compound. […] The reliance on CRL2^VHL was assessed with a neddylation inhibitor MLN4924, which blocks the activity of CRLs (Figure S13A).

[9] = physchem; conditions: pH 7.4
Protocol: The system was calibrated by plotting the retention times of six different drugs (atenolol, metoprolol, labetalol, diltiazem, triphenylene, and permethrin) versus their literature-known log D7.4 in a calibration line (R^2 = 0.99). Subsequently, the mean retention times of the analytes were taken to calculate their log D7.4 values with the aid of the calibration line. At least two independent measurements of each analyte were performed.

[10] = read-out: %remaining protein XIAP, MM.1S cells, 16 h treatment at 0.1 μM, normalized to loading control and DMSO
[11] = read-out: %remaining protein cIAP1, MM.1S cells, 16 h treatment at 0.1 μM, normalized to loading control and DMSO
[12] = read-out: %remaining protein cIAP2, MM.1S cells, 16 h treatment at 0.1 μM, normalized to loading control and DMSO
[13] = read-out: %remaining protein VHL30, MM.1S cells, 16 h treatment at 0.1 μM, normalized to loading control and DMSO
[14] = MM.1S cells, western blot, 0.1 or 1 μM

T2 sequence (P98170 whole entry): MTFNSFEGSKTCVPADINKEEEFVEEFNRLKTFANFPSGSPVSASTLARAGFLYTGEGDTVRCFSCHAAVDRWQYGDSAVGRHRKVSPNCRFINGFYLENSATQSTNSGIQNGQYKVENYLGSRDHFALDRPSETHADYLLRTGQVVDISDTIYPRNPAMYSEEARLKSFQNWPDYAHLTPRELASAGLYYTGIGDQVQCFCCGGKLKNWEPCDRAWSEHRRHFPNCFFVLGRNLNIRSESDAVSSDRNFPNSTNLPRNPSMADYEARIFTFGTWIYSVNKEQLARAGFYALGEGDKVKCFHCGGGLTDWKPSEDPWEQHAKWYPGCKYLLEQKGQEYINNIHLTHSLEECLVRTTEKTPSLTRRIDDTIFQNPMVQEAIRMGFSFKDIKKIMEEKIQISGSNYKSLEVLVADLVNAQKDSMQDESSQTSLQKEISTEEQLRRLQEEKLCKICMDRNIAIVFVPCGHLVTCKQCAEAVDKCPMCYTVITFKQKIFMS
Sequence of VHL30 (P40337 whole entry): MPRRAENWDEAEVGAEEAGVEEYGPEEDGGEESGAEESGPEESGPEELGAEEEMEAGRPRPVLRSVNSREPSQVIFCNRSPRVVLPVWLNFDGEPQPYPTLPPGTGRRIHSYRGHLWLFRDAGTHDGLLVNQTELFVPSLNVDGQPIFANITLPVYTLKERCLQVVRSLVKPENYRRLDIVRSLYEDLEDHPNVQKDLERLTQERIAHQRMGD
T1 sequence (Q13490 whole entry): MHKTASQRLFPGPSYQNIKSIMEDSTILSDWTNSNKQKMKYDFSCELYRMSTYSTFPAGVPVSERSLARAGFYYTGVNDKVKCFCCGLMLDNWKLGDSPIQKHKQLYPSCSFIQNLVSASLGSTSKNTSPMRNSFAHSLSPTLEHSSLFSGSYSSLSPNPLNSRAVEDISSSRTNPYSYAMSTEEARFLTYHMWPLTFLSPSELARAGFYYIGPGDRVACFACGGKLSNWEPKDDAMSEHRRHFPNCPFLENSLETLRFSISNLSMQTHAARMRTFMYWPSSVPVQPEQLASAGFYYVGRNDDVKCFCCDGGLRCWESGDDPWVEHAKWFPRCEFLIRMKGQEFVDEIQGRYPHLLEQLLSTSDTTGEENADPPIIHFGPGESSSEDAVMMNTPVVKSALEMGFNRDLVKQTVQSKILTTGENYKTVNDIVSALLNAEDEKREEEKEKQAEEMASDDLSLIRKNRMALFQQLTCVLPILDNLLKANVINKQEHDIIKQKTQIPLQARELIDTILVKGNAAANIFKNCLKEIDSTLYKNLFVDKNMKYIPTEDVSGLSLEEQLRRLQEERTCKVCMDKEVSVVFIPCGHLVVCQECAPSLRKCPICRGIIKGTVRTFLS
Sequence of cIAP2 (Q13489 whole entry): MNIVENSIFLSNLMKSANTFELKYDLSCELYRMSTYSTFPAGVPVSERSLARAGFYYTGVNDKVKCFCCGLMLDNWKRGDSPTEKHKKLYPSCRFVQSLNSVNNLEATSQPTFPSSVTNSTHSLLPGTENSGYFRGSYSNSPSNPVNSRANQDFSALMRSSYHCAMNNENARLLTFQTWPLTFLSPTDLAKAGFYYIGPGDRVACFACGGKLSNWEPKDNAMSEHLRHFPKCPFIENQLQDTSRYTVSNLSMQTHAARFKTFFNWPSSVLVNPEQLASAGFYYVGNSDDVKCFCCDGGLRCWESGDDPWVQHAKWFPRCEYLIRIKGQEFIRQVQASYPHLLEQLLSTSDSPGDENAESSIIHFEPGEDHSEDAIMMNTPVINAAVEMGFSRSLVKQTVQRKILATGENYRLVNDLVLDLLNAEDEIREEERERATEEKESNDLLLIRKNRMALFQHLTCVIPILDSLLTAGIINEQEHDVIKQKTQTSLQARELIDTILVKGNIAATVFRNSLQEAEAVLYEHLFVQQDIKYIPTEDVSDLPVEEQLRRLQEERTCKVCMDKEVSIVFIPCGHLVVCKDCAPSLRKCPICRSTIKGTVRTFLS
Sequence of VHL19 (P40337 54-213): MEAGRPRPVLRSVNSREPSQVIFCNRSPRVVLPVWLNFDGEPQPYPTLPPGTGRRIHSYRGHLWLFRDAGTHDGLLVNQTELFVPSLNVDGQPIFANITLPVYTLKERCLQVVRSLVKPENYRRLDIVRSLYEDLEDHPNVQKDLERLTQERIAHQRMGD

SMILES: CN[C@@H](C)C(=O)N[C@H](C(=O)N1C[C@@H](Oc2cccc(OCCOCCOCC(=O)N[C@H](C(=O)N3C[C@H](O)C[C@H]3C(=O)NCc3ccc(-c4scnc4C)cc3)C(C)(C)C)c2)C[C@H]1C(=O)N[C@@H]1CCCc2ccccc21)C1CCCCC1 [PROTAC 4, (2S,4S)-1-((S)-2-Cyclohexyl-2-((S)-2-(methylamino)propanamido)acetyl)-4-(3-(2-(2-(2-(((S)-1-((2S,4R)-4-hydroxy-2-((4-(4-methylthiazol-5-yl)benzyl)carbamoyl)pyrrolidin-1-yl)-3,3-dimethyl-1-oxobutan-2-yl)amino)-2-oxoethoxy)ethoxy)ethoxy)phenoxy)-N-((R)-1,2,3,4-tetrahydronaphthalen-1-yl)pyrrolidine-2-carboxamide]
cIAP1 degradation in VHL+/+ and VHL–/– HG3 cells (in words) [1]: cIAP1 autodegradation was observed | XIAP degradation in VHL+/+ and VHL–/– HG3 cells (in words) [2]: occurred only in HG3 wild-type cells | remaining activity at 0.1 µM [3, 10]: 7% | remaining activity at 0.1 µM [4, 11]: 4% | remaining activity at 0.1 µM [5, 12]: 40% | remaining activity at 0.1 µM [6, 13]: 44%

SMILES: CN[C@@H](C)C(=O)N[C@H](C(=O)N1C[C@@H](Oc2cccc(OCCCCCCCC(=O)N[C@H](C(=O)N3C[C@H](O)C[C@H]3C(=O)NCc3ccc(-c4scnc4C)cc3)C(C)(C)C)c2)C[C@H]1C(=O)N[C@@H]1CCCc2ccccc21)C1CCCCC1 [PROTAC 2, (2S,4S)-1-((S)-2-Cyclohexyl-2-((S)-2-(methylamino)propanamido)acetyl)-4-(3-((8-(((S)-1-((2S,4R)-4-hydroxy-2-((4-(4-methylthiazol-5-yl)benzyl)carbamoyl)pyrrolidin-1-yl)-3,3-dimethyl-1-oxobutan-2-yl)amino)-8-oxooctyl)oxy)phenoxy)-N-((R)-1,2,3,4-tetrahydronaphthalen-1-yl)pyrrolidine-2-carboxamide]
cIAP1 degradation in VHL+/+ and VHL–/– HG3 cells (in words) [1]: cIAP1 autodegradation was observed | XIAP degradation in VHL+/+ and VHL–/– HG3 cells (in words) [2]: occurred only in HG3 wild-type cells | remaining activity at 0.1 µM [3, 10]: 5% | remaining activity at 0.1 µM [4, 11]: 4% | remaining activity at 0.1 µM [5, 12]: 23% | remaining activity at 0.1 µM [6, 13]: 28% | VHL30 degradation (in words) ([6]; MM.1S cells, western blot): strong and dose-dependent VHL30 degradation | VHL19 degradation (in words) [7]: slight hook effect for VHL19 degradation

SMILES: CN[C@@H](C)C(=O)N[C@H](C(=O)N1C[C@@H](Oc2cccc(OCCCCCCOCCCCCCOCC(=O)N[C@H](C(=O)N3C[C@H](O)C[C@H]3C(=O)NCc3ccc(-c4scnc4C)cc3)C(C)(C)C)c2)C[C@H]1C(=O)N[C@@H]1CCCc2ccccc21)C1CCCCC1 [PROTAC 6, (2S,4S)-1-((S)-2-Cyclohexyl-2-((S)-2-(methylamino)propanamido)acetyl)-4-(3-((6-((6-(2-(((S)-1-((2S,4R)-4-hydroxy-2-((4-(4-methylthiazol-5-yl)benzyl)carbamoyl)pyrrolidin-1-yl)-3,3-dimethyl-1-oxobutan-2-yl)amino)-2-oxoethoxy)hexyl)oxy)hexyl)oxy)phenoxy)-N-((R)-1,2,3,4-tetrahydronaphthalen-1-yl)pyrrolidine-2-carboxamide]
cIAP1 degradation in VHL+/+ and VHL–/– HG3 cells (in words) [1]: cIAP1 autodegradation was observed | XIAP degradation in VHL+/+ and VHL–/– HG3 cells (in words) [2]: occurred only in HG3 wild-type cells | remaining activity at 0.1 µM ([3]; read-out: %remaining protein XIAP): 2% | remaining activity at 0.1 µM ([4]; read-out: %remaining protein cIAP1): 2% | remaining activity at 0.1 µM ([5]; read-out: %remaining protein cIAP2): 29% | remaining activity at 0.1 µM ([6]; read-out: %remaining protein VHL30): 78%

chromatographic logD [9]: 3.4 | XIAP degradation (in words) [3, 14]: failed to degrade XIAP | cIAP1 degradation (in words) [4, 14]: substantial degradation | cIAP2 degradation (in words) [5, 14]: substantial degradation
SMILES: CN[C@H](C)C(=O)N[C@H](C(=O)N1CCC[C@@H]1C(=O)N[C@@H](C(=O)NCCCCCCNC(=O)[C@H](NC(=O)[C@H]1CCCN1C(=O)[C@@H](NC(=O)[C@@H](C)NC)C1CCCCC1)C(c1ccccc1)c1ccccc1)C(c1ccccc1)c1ccccc1)C1CCCCC1 [BV6, reference compound] (I: H-[dNMeA][Chg][dP][dDip] / II: H-[dNMeA][Chg][dP][dDip]; linker I:C-II:C via Hexamethylenediamine)
IAP degradation profile (in words) [8]: potent cIAP autodegradation
